Test results published in patent publication US8980926B2, “2-aminoindole compounds and methods for the treatment of malaria” (Genzyme Corporation, priority 2009, dated 2015).
Like-named read-outs stand apart in the source and are kept apart here.

Tests used:
P. falciparum strain 3D7 = assay: In vitro potency against P. falciparum strain 3D7 (SYBR green/DAPI); assay type: cell-based; settings: Plasmodium falciparum
[1] = system: Plasmodium falciparum strain Dd2; assay: In vitro potency against P. falciparum strain Dd2; assay type: cell-based; settings: read-out: Potency (IC50; nM) Plasmodium spp. Pf Dd2
P. knowlesi strain H1 = assay: In vitro potency against P. knowlesi H1 in Rhesus blood cells (3H-hypoxanthine incorporation); assay type: cell-based; settings: Plasmodium knowlesi, in Macaca mulatta, read-out: Potency (IC50; nM) Plasmodium spp. Pk H1
Experimental: Selected compounds were tested against P. knowlesi H1 strain parasites cultured in Rhesus blood cells as a surrogate for P. vivax infections using the method of Kocken and coworkers (Kocken, C. H., H. Ozwara, A. van der Wel, A. L. Beetsma, J. M. Mwenda, and A. W. Thomas. 2002. Plasmodium knowlesi provides a rapid in vitro and in vivo transfection system that enables double-crossover gene knockout studies. Infect Immun 70:655-660). Briefly, P. knowlesi were cultured in 2% Rhesus macaque erythrocytes (New England Primate Research Center) in RPMI culture media containing 10% Human O+ serum (Interstate Blood Bank). Schizont stage parasites were purified by floatation in 60% Percoll (GE life sciences) and allowed to reinvade to generate a synchronous population of ring stage parasites. Drug assays were performed by plating ring stage parasites at 0.5% parasitemia in triplicate, in RPMI containing 2.5 μg/ml hypoxanthine. Parasites were incubated for 24 hours with serially diluted test compounds. After 24 hours, thin smears were made to confirm that reinvasion had occurred, 0.5 μCi ^3H-labeled hypoxanthine (Perkin Elmer) were added to each well, and parasites were allowed to progress through S-phase to early schizonts. Cells were then harvested via glass filter plates and ^3H incorporation was measured by scintillation counting. Values were normalized to percentage of controls containing no drug, and IC50 values were generated (GraphPad Prism®).

[2] = Mammalian cytotoxicity, dermal fibroblast; assay type: cell-based; settings: human, normal human dermal fibroblasts (Clonetics #CC-2509); read-out: Selectivity, Mammalian cytotoxicity (IC50; μM) Dermal Fibroblast
[3] = Mammalian cytotoxicity, kidney epithelial; assay type: cell-based; settings: normal human renal proximal tubule cells; read-out: Selectivity, Mammalian cytotoxicity (IC50; μM) Kidney epithelial
Erythrocyte lysis = assay type: cell-based; settings: erythrocytes, read-out: Selectivity, Mammalian cytotoxicity (IC50; μM) Eryth. Lysis
hERG = target: T1, hERG (Homo sapiens, UniProt Q12809); assay: hERG in Chinese hamster ovary cells; assay type: cell-based
T1 construct: expressed in transfected cells; host or cells: Chinese hamster ovary cells (from the earlier reading's assay name)

P. berghei N-clone = assay: In vivo efficacy against P. berghei in mice (4-day suppressive test, oral); design: species or system P. berghei in Swiss Albino mice; settings: for Average Day of Recrudescence: Study Day; for No. Cured: animals cured/group; for Recrudescence (no. animals/total): no parasites on Day 5 but later regressed; for % Suppression Day 5: vs untreated controls; for % of group without parasites: FIG. 3D; for cures: doses of 100-200 mg/kg/day
Description: Because of ethical issues and costs, the acute P. berghei model in rodents is considered the “gold standard” for assessing anti-malarial efficacy in animal models. This model is adapted from Peters' “4-day suppressive test” (Peters, W. 1987. Chemotherapy and Drug Resistance in Malaria, p. 102-115, 2ed, vol. 1. Academic Press, Orlando, Fla.; Peters, W. 1975. The chemotherapy of rodent malaria, XXII. The value of drug-resistant strains of P. berghei in screening for blood schizontocidal activity. Ann Trop Med Parasitol 69:155-171). All studies were conducted in accordance with the Guide for the Care and Use of Laboratory Animals (National-Research-Council. 1996. Guide for the Care and Use of Laboratory Animals. National Academy Press, Washington, D.C.) and the PHS guidelines. Animals were maintained according to NIH guidelines and were allowed to acclimatize for 1 week prior to the commencement of studies. On Day 0, groups of 4-6-week old female Swiss Albino mice (n=5) were infected by tail vein injection with 0.2 ml heparinized blood diluted to contain 1×10^7 N-clone parasites. The aminoindole analogs were formulated in 1.6% lactic acid mixed sodium salt, 1% Tween 80, 9% ethanol and 20% Cerestar (hydroxypropyl β-cyclodextrin; Wacker Chimie) and were administered by oral gavage. […] Animals in the Control-group received vehicle alone. Dose concentration and frequency of dosing were based upon preliminary tolerability/exposure studies. On Day 4 post-infection (5th day of assay) blood was collected by tail-nick, and thin smear microscope slides were prepared and stained using Diff Quick®. Parasitized erythrocytes were counted and compared with the total number of erythrocytes per microscopic field to determine the percent parasitemia. A minimum of 350 erythrocytes were counted. Animals showing no detectable parasites on Day 4 were examined every 2-3 days to determine whether cure was sterile. Animals with no detectable parasites 28 days after cessation of dosing (Study Day 33) were considered cured.

P. berghei ANKA strain = assay: In vitro potency against P. berghei ANKA; assay type: cell-based; settings: Plasmodium berghei, read-out: Potency (IC50; nM) Plasmodium spp. Pb ANKA
malaria = assay: In vivo efficacy in an animal (rodent) model of malaria (FIGS. 1, 2); settings: 50 mg/kg dose; FIGS. 2A and 2B
[4] = read-out: Potency (IC50; nM) Plasmodium spp. Pf 3D7
[5] = reductions in parasitemia, read-out: IC50 values

T1 sequence (Q12809 whole entry): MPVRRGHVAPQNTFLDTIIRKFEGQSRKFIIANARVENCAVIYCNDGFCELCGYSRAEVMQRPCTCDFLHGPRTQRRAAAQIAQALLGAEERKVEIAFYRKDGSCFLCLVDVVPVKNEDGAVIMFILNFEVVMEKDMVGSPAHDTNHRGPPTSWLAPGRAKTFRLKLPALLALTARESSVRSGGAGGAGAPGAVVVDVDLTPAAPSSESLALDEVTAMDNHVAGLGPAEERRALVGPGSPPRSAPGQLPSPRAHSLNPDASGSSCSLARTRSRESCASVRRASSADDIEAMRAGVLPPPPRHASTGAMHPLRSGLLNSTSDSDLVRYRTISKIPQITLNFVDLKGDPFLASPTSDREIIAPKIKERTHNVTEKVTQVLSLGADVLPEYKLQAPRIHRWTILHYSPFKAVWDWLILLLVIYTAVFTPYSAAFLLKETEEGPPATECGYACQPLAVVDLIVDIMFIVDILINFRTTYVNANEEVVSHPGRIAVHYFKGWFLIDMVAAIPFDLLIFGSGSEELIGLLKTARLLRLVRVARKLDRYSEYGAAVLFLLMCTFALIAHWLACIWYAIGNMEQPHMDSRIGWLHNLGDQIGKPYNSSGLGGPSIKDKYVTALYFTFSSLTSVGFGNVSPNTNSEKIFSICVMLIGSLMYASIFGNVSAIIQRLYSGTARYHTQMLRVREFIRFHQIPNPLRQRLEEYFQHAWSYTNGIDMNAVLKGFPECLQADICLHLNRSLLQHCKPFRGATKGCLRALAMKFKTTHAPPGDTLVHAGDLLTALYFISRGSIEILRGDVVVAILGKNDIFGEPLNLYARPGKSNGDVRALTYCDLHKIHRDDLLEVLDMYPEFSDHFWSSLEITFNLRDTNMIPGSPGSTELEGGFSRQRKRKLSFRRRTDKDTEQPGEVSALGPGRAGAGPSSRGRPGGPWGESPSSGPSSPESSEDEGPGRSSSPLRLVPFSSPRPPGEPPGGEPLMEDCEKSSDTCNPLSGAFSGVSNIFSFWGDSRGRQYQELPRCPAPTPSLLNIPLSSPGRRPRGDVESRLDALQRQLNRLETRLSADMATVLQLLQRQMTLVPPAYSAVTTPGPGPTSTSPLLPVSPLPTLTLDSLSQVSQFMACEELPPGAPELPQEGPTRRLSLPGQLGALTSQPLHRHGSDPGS

SMILES | IC50 (P. falciparum strain 3D7; [4]) [nM] | IC50 (P. falciparum strain 3D7; [5]) [nM] | IC50 [1] [nM] | IC50 (P. knowlesi strain H1) [nM] | IC50 (P. berghei ANKA strain) [nM] | IC50 [2] [µM] | IC50 [3] [µM] | IC50 (Erythrocyte lysis) [µM] | Average Day of Recrudescence (P. berghei N-clone; 100 mg/kg/day b.i.d. p.o.) [days] | No. Cured (P. berghei N-clone; 100 mg/kg/day b.i.d. p.o.) | Recrudescence (no. animals/total) (P. berghei N-clone; 100 mg/kg/day b.i.d. p.o.) | % Suppression Day 5 (P. berghei N-clone; 100 mg/kg/day b.i.d. p.o.) [%] | No. Cured (P. berghei N-clone; 200 mg/kg/day b.i.d. p.o.) | % Suppression Day 5 (P. berghei N-clone; 200 mg/kg/day b.i.d. p.o.) [%] | cures (P. berghei N-clone) | No. Cured (P. berghei N-clone; 50 mg/kg/day b.i.d. p.o.) | % Suppression Day 5 (P. berghei N-clone; 50 mg/kg/day b.i.d. p.o.) [%] | further results
NC1=Nc2ccc(Cl)cc2[C@@]1(O)c1ccccc1 [Compound 2] | 665 | 100 to 500 | 1460 | – | 1360 | > 242 | > 242 | > 155 | – | – | – | – | – | – | – | 0/5 | 80 | in vivo efficacy (reducing parasitemia) (malaria): efficacious for reducing parasitemia
NC1=Nc2ccc(Cl)cc2[C@]1(O)c1ccccc1 [Compound 3] | 313 | 100 to 500 | 675 | – | 1690 | > 242 | > 242 | > 155 | – | 5/5 | – | 100 | – | – | able to affect cures | 2/5 | 100 | Average Day of Recrudescence (P. berghei N-clone; 50 mg/kg/day b.i.d. p.o.): 12 days; Recrudescence (no. animals/total) (P. berghei N-clone; 50 mg/kg/day b.i.d. p.o.): 3/5; in vivo efficacy (reducing parasitemia) (malaria): efficacious for reducing parasitemia; in vivo efficacy (treatment of malaria) (malaria): effectively treated malaria
Cc1ccc2c(c1)C(O)(c1ccccc1)C(N)=N2 (stereo not shown) [Compound 37] | 183 | 1 to 100 | 455 | 318 | – | > 62.5 | > 62.5 | > 168 | 17 | 3/5 | 2/5 | 100 | 5/5 | 100 | able to affect cures | – | – | –
CC(C)C1(O)C(N)=Nc2ccc(Cl)cc21 (stereo not shown) [Compound 39] | 108 | 100 to 500 | 347 | 190 | 2990 | > 62.5 | > 62.5 | > 178 | 13 | 0/5 | 3/5 | 99 | – | – | – | 0/5 | 98 | Average Day of Recrudescence (P. berghei N-clone; 50 mg/kg/day b.i.d. p.o.): 10 days; Recrudescence (no. animals/total) (P. berghei N-clone; 50 mg/kg/day b.i.d. p.o.): 3/5

The next compounds have a lower IC50 (P. falciparum strain 3D7; [4]) than those just listed; values first:

IC50 (P. falciparum strain 3D7; [4]) [nM] | IC50 (P. falciparum strain 3D7; [5]) [nM] | IC50 [1] [nM] | IC50 (P. knowlesi strain H1) [nM] | IC50 (P. berghei ANKA strain) [nM] | SMILES | IC50 [2] [µM] | IC50 [3] [µM] | IC50 (Erythrocyte lysis) [µM] | Average Day of Recrudescence (P. berghei N-clone; 100 mg/kg/day b.i.d. p.o.) [days] | No. Cured (P. berghei N-clone; 100 mg/kg/day b.i.d. p.o.) | Recrudescence (no. animals/total) (P. berghei N-clone; 100 mg/kg/day b.i.d. p.o.) | % Suppression Day 5 (P. berghei N-clone; 100 mg/kg/day b.i.d. p.o.) [%] | No. Cured (P. berghei N-clone; 200 mg/kg/day b.i.d. p.o.) | % Suppression Day 5 (P. berghei N-clone; 200 mg/kg/day b.i.d. p.o.) [%] | cures (P. berghei N-clone) | No. Cured (P. berghei N-clone; 50 mg/kg/day b.i.d. p.o.) | % Suppression Day 5 (P. berghei N-clone; 50 mg/kg/day b.i.d. p.o.) [%] | further results
23 | 1 to 100 | 49 | 38 | – | CCOc1ccc(F)cc1C1(O)C(N)=Nc2ccc(Cl)cc21 (racemic) [Compound 142, 2-amino-5-chloro-3-(2-ethoxy-5-fluorophenyl)-3H-indol-3-ol] | > 195 | > 195 | > 125 | 11 | 0/5 | 1/5 | 99 | 3/5 | 99 | able to affect cures | – | – | Selectivity, hERG (μM) CHO (hERG): 21 µM; Average Day of Recrudescence (P. berghei N-clone; 200 mg/kg/day b.i.d. p.o.): 13 days; Recrudescence (no. animals/total) (P. berghei N-clone; 200 mg/kg/day b.i.d. p.o.): 1/5; % of group without parasites (P. berghei N-clone; day 5, 100/mg/kg/day): 20%; % of group without parasites (P. berghei N-clone; day 5, 200/mg/kg/day): 80%; % of group without parasites (P. berghei N-clone; day 30, 200/mg/kg/day): 60%
22 | 1 to 100 | 37 | 90 | – | CC(C)Oc1ccccc1C1(O)C(N)=Nc2ccc(Cl)cc21 (stereo not shown) [Compound 146] | > 188 | > 188 | > 120 | 6 | 0/5) | 1/5 | 99 | – | – | – | – | – | Selectivity, hERG (μM) CHO (hERG): 19 µM
21 | 1 to 100 | 81 | – | – | COc1cc(C2(O)C(N)=Nc3ccc(Cl)cc32)c(OC)cn1 (stereo not shown) [Compound 202] | > 195 | > 195 | > 125 | – | 0/5 | – | 95 | 0/5 | 98 | – | – | – | Average Day of Recrudescence (P. berghei N-clone; 200 mg/kg/day b.i.d. p.o.): 17 days; Recrudescence (no. animals/total) (P. berghei N-clone; 200 mg/kg/day b.i.d. p.o.): 2/5
18 | 1 to 100 | 58 | – | 342 | CCOc1ccc(F)cc1[C@]1(O)C(N)=Nc2ccc(Cl)cc21 (stereo in doubt) [Compound 266] | > 195 | > 195 | > 125 | – | 0/5 | – | 81 | – | – | – | – | – | –
